Results on 4 molecules are retold here after US20060024373A1, “Cross-linked hyaluronic acid-laminin gels and use thereof in cell culture and medical implants” (priority 2000, published 2006).

Series [1] has as its system neuronal cells dissociated from brains of 14-16 days rat embryos. In words: Rat embryonic brain cells cultured in enriched HA-LN-gel with antioxidants / protective agents. The series is classed as cell-based. The settings on record: for most effective dose: agent added to enriched HA-LN-gel before culturing the cells, AA tested at 1 mM, 330 μM, 100 μM, NAC at 0.1, 1, 10 μM; for neuronal sprouting: first 24-48 hours of culture in the enriched gel, versus untreated control cultures. The method, then:
Neuronal cells were manually dissociated from brains of 14-16 days rat embryos. Cells were embedded in the HA-LN-gel, which was enriched as described herein above. NAC and AA were obtained from SIGMA (Cat. No. 616-91-1 and […]; Lot 108H00575 and 096H02811, respectively). Pifithrin-α, cyclic (Calbiochem, Cat No. 506134, lot:B41595) is a very stable analog of pifithrin-α, with reduced cytotoxicity. NAC, AA and Pifithrin-α cyclic were added to the HA-LN-gel (enriched with neural growth factors) prior to culturing of cells. Culture medium was changed twice a week. All the experiments contained control cultures (without treatment of NAC or AA or Pifithrin-α. 5-7 experiments were performed in 12 wells, in triplicates. Dissociated brain cells were attached to DE53 cylindrical, positively charged microcarriers (MCs), and suspended in brain medium for 4-17 days ([…] 1990 Methods in Neur 2:195-209). The floating cell-MC aggregates were transferred (using fine spatula, under a stereo microscope) into HA-LN-gel enriched with the indicated growth factors or Antioxidants. During one month of daily observations the following differences (which were more pronounced in the stationary MC-cultures) were observed: […]

Series [2] concerns Endothelial cells (HUVEC). Description: Attachment and growth of endothelial cells on or in substrates and milieus. The series is classed as cell-based. As to the method: In order to test the ability of HA-LN-gel to support the attachment and growth of endothelial cells, several experiments were conducted:
Endothelial cells (HE4 split #1), grown on gelatin, were collected by 0.25% trypsin-EDTA digestion. HUVEC were counted and 1.35×10^6 cells were divided into treatment groups. The cells were seeded in triplicates into 12-well plates at a concentration of 50,000 cells per well. The treatment groups were as follows: • 1. Cells seeded on the plastic • 2. Cells seeded on gelatin coating • 3. Cells seeded on HA (1 ml)+medium (0.5 ml) coating. Each well was coated with ˜0.2 ml • 4. Cells (150,000) seeded in HA (1 ml)+medium (0.5 ml). 0.5 ml per well. • 5. Cells seeded on gelatin and after attachment (24 hours) covered with HA+medium (as above, coated with 0.5 ml per well) • 6. Cells seeded on Laminin coating • 7. Cells seeded on HA-LN-gel coating (0.9 ml HA, 0.1 ml Laminin, 0.4 ml medium). Coating was with ˜0.2 ml per well • 8. Cells (150,000) seeded in HA-LN-gel (as in g) • 9. Cells seeded on gelatin and after attachment (24 hours) covered with HA-LN-gel (as in g above)
The morphology of the seeded cells was monitored microscopically every day.
Therefore the above experiment was repeated using 10% of the laminin concentration. Endothelial were seeded in 12 well plates in triplicates (50000 cell/well) as follows: • 1. Cells on gelatin coating as control. • 2. Cells on HA-LN-gel (10% of the usual concentration of laminin) coating. • 3. Cells in HA-LN-gel (10% of the usual concentration of laminin) • 4. Higher concentration of cells (100,000/well) in HA-LN-gel (10% of the usual concentration of laminin).

Turning to `O=C1O[C@H]([C@@H](O)CO)C(O)=C1O` [Ascorbic acid], the “effectiveness of the tested concentrations” value in series [1] (1 mM, 330 μM or 100 μM applied to the cell cultures) is on record as “effective”. Besides, in series [1], the most effective dose was 330 µM and the neuronal sprouting entry was “stimulated intensive sprouting”.

As for “laminin: adhesive glycoprotein; Murine LN-1 obtained from Sigma”, in series [2] (50,000 cells per well, 12-well plates, usual laminin concentration, monitored microscopically every day), the “morphology and attachment of cells seeded on the coating” value is “appeared round and did not attach well to the substrate”. For the same molecule, the “toxicity to endothelial cells as substrate coating” value in series [2] (cells seeded on the coating) is recorded as “toxic”. In addition, the “toxic effects on EC, overall finding of first experiment” value in series [2] (laminin alone or as a component of the HA-LN-gel, at the concentration examined) is given as “some toxic effects”.

For the molecule `CC(=O)N[C@@H](CS)C(=O)O` [N-acetyl-L-cysteine], in series [1], the most effective dose was found to be 10 µM and the neuronal sprouting result is reported as “stimulated intensive sprouting”.

For the molecule `Cc1ccc(-c2cn3c4c(sc3n2)CCCC4)cc1` [Pifithrin-α, cyclic], in series [1] (100 and 200 nM versus 2 μM), the “effectiveness compared between concentrations” value is listed as “more effective”. Also, in series [1], the neuronal sprouting result is listed as “stimulated intensive sprouting”.
